From article PMC6075749 (PLoS ONE, 2018)
Several values for one entry are separate records, joined by “and”; a condition that tells them apart may be missing. Equal values may be shown once. Entries after “also recorded” stand apart in the source; their conditions may differ. Read-outs that look alike come from different tables or passages of the source.

Experiments:
[1] = target: T1, recombinant human MMP-14 catalytic domain (Homo sapiens, UniProt P50281); test: Initial rate fluorescence assay, MMP-14 catalytic domain, substrate Mca-PLGLDpaAR-NH2 (Km, Ki); type: biochemical
T1 construct: recombinant MMP-14 (catalytic domain) were from Calbiochem; purchased Calbiochem (San Diego, CA, USA)
Protocol: (§1) To determine the kinetic and inhibitor kinetic coefficients Km, and Ki, initial rate experiments were performed using a Perkin Elmer LS 50 Luminescence spectrometer and the FL WinLab Software Package (Perkin Elmer). The reactions were followed for one minute and during that time 600 data points were collected. The excitation and emission wavelengths for the two fluorescence quenched MMP peptide substrates, McaPLGLDpaAR-NH2 and Mca-[…](Dpn)-OH were; λex = 320 nm, λem = 405 nm and a slit width = 10 nm at both wavelengths. All assays were performed at 37°C in an assay buffer of 0.1 M Hepes pH 7.5, 0.005% Brij-35, 10 mM CaCl2 and a total assay volume of 100 μl.
(§2) The Km value was calculated from non-linear regression of the Michaelis-Menten equation using the Enzyme kinetic module in GraphPad Prism 5.
(§3) A fixed substrate concentration of 5.0 μM and / or 10 μM and a fixed enzyme concentration along with varying concentrations of potential inhibitor were used to determine the inhibitory capacity of the two compounds. […] For a competitive inhibitor, the IC50 value equals Ki(1+[S]/Km). For tight binding competitive inhibitors (Ki ≤ [E]), the values of Ki and [E] were obtained by both a dose response plot (vi/v0 against [I]) using the Morrison equation [71] (2) and through the linear Henderson Plot (Eq 3). For tight binding inhibitors, the enzyme was pre-incubated for 15 min at 37°C in the presence of inhibitor and the reaction was started by the addition of substrate. Graph Pad Prism 5 was used to calculate Ki and [E] values.

[2] = target: T2, auerolysin (Staphylococcus aureus, UniProt P81177); test: Initial rate fluorescence assay, auerolysin, substrate Mca-[…](Dnp)-OH (Km, Ki); type: biochemical
T2 construct: purchased BioCentrum Ltd (Kraków, Poland)
T2 sequence (P81177 209-509): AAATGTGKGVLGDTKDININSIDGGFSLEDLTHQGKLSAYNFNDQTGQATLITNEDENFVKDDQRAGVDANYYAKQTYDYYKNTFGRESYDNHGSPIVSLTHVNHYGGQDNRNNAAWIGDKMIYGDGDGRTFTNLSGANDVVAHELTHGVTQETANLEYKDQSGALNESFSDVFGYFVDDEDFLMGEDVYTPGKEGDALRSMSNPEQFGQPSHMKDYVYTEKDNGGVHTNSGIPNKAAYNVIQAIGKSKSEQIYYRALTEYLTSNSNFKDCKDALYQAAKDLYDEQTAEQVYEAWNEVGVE
Protocol: as §1, §2, §3

[3] = system: MMP-14 (catalytic domain); details: cited from earlier work
[4] = system: MMP-9; details: cited from earlier work
[5] = target: T3, thermolysin (Bacillus thermoproteolyticus, UniProt P00800); design: purchased Calbiochem (San Diego, CA, USA); method as in Grobelny D et al. [58]; details: ref Grobelny D et al. [58]; cited from earlier work
T3 sequence (P00800 233-548): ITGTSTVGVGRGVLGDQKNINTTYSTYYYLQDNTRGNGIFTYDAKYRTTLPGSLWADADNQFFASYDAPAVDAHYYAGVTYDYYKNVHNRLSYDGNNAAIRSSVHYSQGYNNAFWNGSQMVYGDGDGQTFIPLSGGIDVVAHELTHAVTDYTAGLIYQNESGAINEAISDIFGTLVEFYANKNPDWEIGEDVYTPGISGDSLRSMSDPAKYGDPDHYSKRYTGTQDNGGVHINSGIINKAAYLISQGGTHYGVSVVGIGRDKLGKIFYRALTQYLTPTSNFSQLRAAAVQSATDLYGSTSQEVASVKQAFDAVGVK

[6] = target: T4, pseudolysin (Pseudomonas aeruginosa, UniProt P14756); design: purchased Calbiochem (San Diego, CA, USA); details: ref Grobelny D et al. [58]; cited from earlier work
T4 sequence (P14756 198-498): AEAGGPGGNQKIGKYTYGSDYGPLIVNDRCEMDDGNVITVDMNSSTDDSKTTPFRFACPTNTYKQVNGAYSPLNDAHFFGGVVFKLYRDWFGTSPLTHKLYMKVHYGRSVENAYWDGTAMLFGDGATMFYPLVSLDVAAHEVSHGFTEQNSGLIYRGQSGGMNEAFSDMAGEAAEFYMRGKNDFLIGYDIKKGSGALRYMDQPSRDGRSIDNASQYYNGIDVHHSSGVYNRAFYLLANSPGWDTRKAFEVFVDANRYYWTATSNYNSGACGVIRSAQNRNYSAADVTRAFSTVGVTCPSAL

[7] = target: T3, thermolysin; test: Initial rate fluorescence assay, thermolysin, substrate Mca-RPPGFSAFK(Dnp)-OH (Km, inhibition); details: N.I. = no inhibition up to 100 μM of inhibitor
Protocol: as §1, §2
(§4) A fixed substrate concentration of 5.0 μM and / or 10 μM and a fixed enzyme concentration along with varying concentrations of potential inhibitor were used to determine the inhibitory capacity of the two compounds. […] For a competitive inhibitor, the IC50 value equals Ki(1+[S]/Km). For tight binding competitive inhibitors (Ki ≤ [E]), the values of Ki and [E] were obtained by both a dose response plot (vi/v0 against [I]) using the Morrison equation [71] […]
(§5) The IC50 values were determined from a dose response plot vi/v0 vs log [Inhibitor] as described previously.

[8] = target: T4, pseudolysin; test: Initial rate fluorescence assay, pseudolysin, substrate Mca-RPPGFSAFK(Dnp)-OH (Km, inhibition); details: N.I. = no inhibition up to 100 μM of inhibitor
Protocol: as §1, §2, §4, §5

[9] = target: four forms of activated MMP-9 (Homo sapiens, UniProt P14780); test: Ki across the four forms of activated MMP-9 (summary); type: biochemical; details: ratio of Ki values, compound 1b vs galardin
Sequence of four forms of activated MMP-9 (P14780 107-508 limits assumed): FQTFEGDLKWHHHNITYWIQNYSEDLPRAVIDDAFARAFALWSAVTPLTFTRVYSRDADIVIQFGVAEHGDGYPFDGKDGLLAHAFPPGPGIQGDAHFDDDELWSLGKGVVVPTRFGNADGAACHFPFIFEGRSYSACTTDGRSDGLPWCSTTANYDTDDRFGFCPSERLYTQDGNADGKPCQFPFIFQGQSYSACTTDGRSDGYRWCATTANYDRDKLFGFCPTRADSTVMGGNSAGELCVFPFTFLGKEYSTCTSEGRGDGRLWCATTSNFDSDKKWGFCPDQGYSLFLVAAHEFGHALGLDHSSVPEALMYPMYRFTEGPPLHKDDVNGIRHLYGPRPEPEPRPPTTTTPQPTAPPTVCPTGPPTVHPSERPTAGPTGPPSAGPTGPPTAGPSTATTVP
Protocol: as §1, §3

[10] = system: COc1ccc2c(CC(=O)N[C@@H](CCCNC(=N)N)C(=O)N3CCC[C@H]3C(=O)N3CCC[C@H]3C(=O)NCC(=O)N[C@@H](Cc3ccccc3)C(=O)N[C@@H](CO)C(=O)N[C@@H](C)C(=O)N[C@@H](Cc3ccccc3)C(=O)N[C@@H](CCCCNc3ccc([N+](=O)[O-])cc3[N+](=O)[O-])C(=O)O)cc(=O)oc2c1; test: Initial rate fluorescence assay, auerolysin, substrate Mca-[…](Dnp)-OH (Km, Ki); type: biochemical, staphylococcus aureus; details: other: low precision; Km far above highest usable substrate concentration (10 μM); pH 7.5; 37.0 °C
Protocol: as §1, §2, §3

[11] = system: COc1ccc2c(CC(=O)N[C@@H](CCCNC(=N)N)C(=O)N3CCC[C@H]3C(=O)N3CCC[C@H]3C(=O)NCC(=O)N[C@@H](Cc3ccccc3)C(=O)N[C@@H](CO)C(=O)N[C@@H](C)C(=O)N[C@@H](Cc3ccccc3)C(=O)N[C@@H](CCCCNc3ccc([N+](=O)[O-])cc3[N+](=O)[O-])C(=O)O)cc(=O)oc2c1; test: purified protein, by the assay type; details: pH 7.5, 37.0 °C

## CNC(=O)[C@H](Cc1c[nH]c2ccccc12)NC(=O)[C@@H](CC(=O)NO)CC(C)C [Galardin]
[1]; Ki ± s.d. per experiment, [S] 5.0 μM, read-out: Ki, Morrison equation, individual experiment
  Ki: 0.95 nM and 0.78 nM and 0.82 nM and 0.91 nM and 0.89 nM
[1]; Ki ± s.d. per experiment, [S] 5.0 or 10.0 μM, read-out: Ki, Henderson plot, individual experiment
  Ki: 0.78 nM (2×) and 0.86 nM and 0.76 nM and 1.16 nM
[1]; average ± S.E.M. of independent experiments, 37°C, pH 7.5, read-out: Ki, Henderson plot, average
  Ki: 0.87 ± 0.07 nM
[1]; average ± S.E.M. of independent experiments, read-out: Ki, Morrison equation, average
  Ki: 0.87 nM
[2]
  IC50: 500 ± 40 nM
[2]; Ki app from the slope of the Henderson plot, 3.6 nM enzyme, r2 = 0.84, N = 16
  Ki: 500 ± 60 nM
[2]; Ki from Henderson plot, from Ki app, 3.6 nM enzyme
  Ki: 450 ± 50 nM
[2]; Ki from IC50 (dose response plot, Eq (1))
  Ki: 450 nM
[2]; Ki, from dose response plot using Eq (1), one experiment
  Ki: 452 ± 35 nM
[2]; ratio of Ki values
  binding to auerolysin, times weaker than binding to thermolysin and pseudolysin: about 25 times
[3]
  IC50: 13.4 nM
[4]
  IC50: […]
[5]
  Ki: 20 nM
[6]
  Ki: 20 nM

## O=C(NO)[C@H]1[C@@H](O)[C@H](O)[C@H](O)CN1S(=O)(=O)c1ccc(Oc2ccccc2)cc1 [compound 1b]
[1]; Ki, Henderson plot, average, average ± S.E.M. of independent experiments, 37°C, pH 7.5
  Ki: 0.088 nM and 0.09 nM
[1]; Ki, Henderson plot, individual experiment, Ki ± s.d. per experiment, [S] 5.0 or 10.0 μM
  Ki: 0.074 nM and 0.128 nM and 0.081 nM and 0.07 nM and 0.08 nM
[1]; Ki, Morrison equation, average, average ± S.E.M. of independent experiments
  Ki: 0.16 ± 0.02 nM
[1]; Ki, Morrison equation, individual experiment, Ki ± s.d. per experiment, [S] 5.0 μM
  Ki: 0.16 nM (2×) and 0.21 nM
[1]; ratio of Ki values, compound 1b vs galardin
  interaction with MMP-14, times stronger than galardin: 10 times
[1]; read-out: Ki, Morrison equation, individual experiment
  Ki: 0.1 ± 0.06 nM
[2]; N.I. = no inhibition up to 100 μM of inhibitor
  Inhibitory effect (Ki: N.I.): no inhibitory effect; also recorded: N.I.^c
[7]
  Inhibitory effect (Ki: N.I.): no inhibitory effect and N.I.
[8]
  Inhibitory effect (Ki: N.I.): no inhibitory effect and N.I.
[9]
  interaction with MMP-9, times stronger than galardin: 5 to 10 times
[4]
  Ki: 0.097 nM

## auerolysin (Staphylococcus aureus)
[10]
  Km: 47 ± 41 µM

## pseudolysin (Pseudomonas aeruginosa PAO1)
[11]; other: low precision, Km far above highest usable substrate concentration (10 μM)
  Km: 24 ± 8 µM

## thermolysin (Bacillus thermoproteolyticus)
[11]; other: substrate 0.5 to 10.0 μM
  Km: 6 ± 1 µM
